Measured values taken from publication PMC6838339, “Discovery of Novel Multi-target Inhibitor of angiotensin type 1 receptor and neprilysin inhibitors from Traditional Chinese Medicine” (Scientific Reports, 2019).

Biological target: T1, Angiotensin II type-1 receptor (AT1) (Homo sapiens, UniProt P30556)
T1 construct: gene AGTR1
T1 sequence (P30556 1-359): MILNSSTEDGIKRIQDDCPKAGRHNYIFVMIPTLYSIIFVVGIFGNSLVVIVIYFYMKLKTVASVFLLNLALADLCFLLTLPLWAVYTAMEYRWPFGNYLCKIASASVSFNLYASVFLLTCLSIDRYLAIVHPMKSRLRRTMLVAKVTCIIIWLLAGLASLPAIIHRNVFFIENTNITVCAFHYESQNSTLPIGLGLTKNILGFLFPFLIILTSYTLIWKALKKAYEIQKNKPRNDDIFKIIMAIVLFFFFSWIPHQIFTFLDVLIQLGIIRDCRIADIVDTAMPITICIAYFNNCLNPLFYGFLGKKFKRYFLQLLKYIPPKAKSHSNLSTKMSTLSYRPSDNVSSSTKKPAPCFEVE
Test: FLIPR calcium influx assay in HEK293/Ga15/AT1 cells, angiotensin II stimulated
Type: cell-based

Cc1cc(OC(=O)c2c(C)cc(OC(=O)c3c(C)cc(O)cc3O)cc2O)cc(O)c1C(=O)O [gyrophoric acid]
IC50: 29.8 µM
